In patent US7078400B2, “20-HETE synthase inhibitor” (Taisho Pharmaceutical Co., Ltd., priority 1999, dated 2006):

Tests used:
[1] = test system: 20-HETE synthase originated from rat kidney microsome; assay: Inhibitory effect of 20-HETE synthase originated from rat kidney microsome; format: biochemical; details: for Inhibition rate (1 μM): 20-HETE production without compound set to 100%
In short: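 Kidney microsomes from 6-week male spontaneously hypertensive rats were used with tritium-arachidonic acid and NADPH. 20-HETE was quantified by radio-HPLC on a C18 column.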

[2] = 1 μM of the subject compound added, rat kidney microsome
[3] = concentration at which production of 20-HETE was inhibited to 50%, rat kidney microsome
[4] = 1 μM of subject compound, rat kidney microsome
[5] = concentration at which 20-HETE production was inhibited to 50%, rat kidney microsome
[6] = concentration at which production of 20-HETE was inhibited to 50%

| SMILES | melting point [°C] | Inhibition rate (1 μM) [1, 2] | IC50 [1, 3] [nM] | Inhibition rate (1 μM) [1, 4] | IC50 [1, 5] [nM] | Inhibition rate (1 μM) ([1]; 1 μM of the subject compound) | IC50 [1, 6] [nM] |
| --- | --- | --- | --- | --- | --- | --- | --- |
| Cc1cc(C)c(N/C=N/O)c(C)c1 [Comp. 72] | 168 to 169 | 99.2 | – | – | – | – | – |
| CCCCCc1ccc(N/C=N/O)cc1 [Comp. 7] | 122.5 to 124 | 110.5 | 12.1 | – | – | – | – |
| CC(C)(C)c1ccccc1N/C=N/O.Cl [Comp. 8] | 141 to 142 | 99.9 | – | – | – | – | – |
| C#CCCOc1ccc(N/C=N/O)cc1 [Comp. 335] | 139 to 141 | – | – | 110 | 1.4 | – | – |
| O/N=C/Nc1ccc(OCCCn2cccc2)cc1 [Comp. 412] | 130 to 130.5 | – | – | – | – | 119.4 | 1.5 |
| O/N=C/Nc1cccc(Oc2ccccc2)c1 [Comp. 124] | 100 to 102 | 92.2 | 354 | – | – | – | – |
| CN(C)CCCCCCOc1ccc(N/C=N/O)cc1 [Comp. 402] | 95 to 96 | – | – | – | – | 118.8 | 18.7 |
| CN(C)CC(C)(C)COc1ccc(N/C=N/O)cc1 [Comp. 403] | 101.5 to 102 | – | – | – | – | 118.3 | 28.5 |
| C#CCOc1ccc(N/C=N/O)cc1 [Comp. 227] | 139 to 141 | – | – | 117.8 | 39.7 | – | – |
| O/N=C/Nc1ccc(Cl)cc1 [Comp. 15] | 155.5 to 156 | 92.9 | 288 | – | – | – | – |
| Cc1cc(NC(=O)c2ccccc2)c(Cl)cc1N/C=N/O [Comp. 276] | 207 to 207.5 | – | – | 71.8 | 55.9 | – | – |
| O/N=C/Nc1ccc(OCCCOc2ccccc2)cc1 [Comp. 365] | 143.5 to 145 | – | – | 105 | 1.4 | – | – |
| COCCOc1ccc(N/C=N/O)cc1 [Comp. 346] | 104 to 107 | – | – | 106.2 | 8.9 | – | – |
| O/N=C/Nc1ccc(OCC2CC2)cc1 [Comp. 356] | 141 to 142.5 | – | – | 102 | 2.6 | – | – |
| C=CCCOc1ccc(N/C=N/O)cc1 [Comp. 330] | 122 to 124 | – | – | 118.8 | 2.4 | – | – |
| Cc1cccc(COc2ccc(N/C=N/O)cc2)c1 [Comp. 391] | 161.5 to 162 | – | – | 113.4 | 2.4 | – | – |
| CN(C)CCOCCOc1ccc(N/C=N/O)cc1 [Comp. 404] | 57.5 to 59 | – | – | – | – | 114.9 | 116 |
| COCCOCCOc1ccc(N/C=N/O)cc1 [Comp. 347] | 80.5 to 81.5 | – | – | 105 | 3.7 | – | – |
| OCCSc1ccc(N/C=N/O)cc1 [Comp. 444] | 121 | – | – | – | – | 100.7 | 12.1 |
| O/N=C/Nc1ccc(N2CCCCC2)cc1 [Comp. 294] | 162 to 162.5 | – | – | 103.2 | 4.9 | – | – |
| CCOC(=O)Cc1ccc(N/C=N/O)cc1 [Comp. 122] | 106 to 107.5 | 94.7 | 28.9 | – | – | – | – |
| Cc1ccc(N/C=N/O)cc1F [Comp. 161] | 156 to 157 | 88.6 | 13.4 | – | – | – | – |

| SMILES | melting point [°C] | Inhibition rate (1 μM) [1, 2] | IC50 [1, 3] [nM] | Inhibition rate (1 μM) [1, 4] | IC50 [1, 5] [nM] | Inhibition rate (1 μM) ([1]; 1 μM of the subject compound) | IC50 [1, 6] [nM] |
| --- | --- | --- | --- | --- | --- | --- | --- |
| O/N=C/Nc1ccc(C2CCCCC2)cc1 [Comp. 5] | 153 to 154 | 99.9 | 3.8 | – | – | – | – |
| CCSCCOc1ccc(N/C=N/O)cc1 [Comp. 361] | 104 to 106 | – | – | 106 | 2.1 | – | – |
| Cc1cc(N/C=N/O)ccc1Br [Comp. 51] | 157 to 158 | 50.2 | 21.8 | – | – | – | – |
| O=C([O-])CCCCOc1ccc(N/C=N/O)cc1.[Na+] [Comp. 434] | > 300 | – | – | – | – | – | 3.2 |
| CC(C)(C)COc1ccc(N/C=N/O)cc1 [Comp. 324] | 148.5 to 149.5 | – | – | 99 | 3.7 | – | – |
| O=C(c1ccccc1)c1ccc(N/C=N/O)cc1 [Comp. 239] | 182.5 to 183 | – | – | – | 4080 | – | – |
| Cc1cc(Br)ccc1N/C=N/O [Comp. 41] | 161 to 161.5 | 96.6 | 49 | – | – | – | – |
| O/N=C/Nc1ccc(OCCN2CCCC2)cc1 [Comp. 339] | 113.5 to 114.5 | – | – | 88 | 124 | – | – |
| Cc1cc(Cl)ccc1N/C=N/O [Comp. 38] | 151 to 152.5 | 89.8 | 79.8 | – | – | – | – |
| COc1ccc(C)cc1N/C=N/O [Comp. 17] | 136.5 to 139 | 85.3 | – | – | – | – | – |
| COc1ccc(C(C)(C)C)cc1N/C=N/O [Comp. 6] | 119.5 to 120.5 | 99.9 | – | – | – | – | – |
| O/N=C/Nc1ccc(OCCCc2ccccn2)cc1 [Comp. 358] | 138 to 139.5 | – | – | 103 | 3.1 | – | – |
| CCOc1ccc(N/C=N/O)cc1 [Comp. 20] | 149 to 150 | 97.5 | 228 | – | – | – | – |
| O/N=C/Nc1ccc(OCCCCCN2CCCCC2)cc1 [Comp. 431] | 113 to 115 | – | – | – | – | – | 47.7 |
| O/N=C/Nc1cc(C(F)(F)F)cc(C(F)(F)F)c1 [Comp. 49] | 122.5 to 124 | 46.7 | – | – | – | – | – |
| CN1CCCCC1COc1ccc(N/C=N/O)cc1 (stereo not drawn) [Comp. 417] | 146.5 to 148 | – | – | – | – | 102.8 | 90 |
| CCc1cc(C#N)ccc1N/C=N/O [Comp. 56] | 144 to 145.5 | 50.6 | – | – | – | – | – |
| CC#CCOc1ccc(N/C=N/O)cc1 [Comp. 333] | 171.5 to 172 | – | – | 119.3 | 2.2 | – | – |
| O=C([O-])CCCCCOc1ccc(N/C=N/O)cc1.[Na+] [Comp. 425] | > 300 | – | – | – | – | – | 3 |
| C/C=C/C=C/COc1ccc(N/C=N/O)cc1 [Comp. 332] | 169.5 to 170 | – | – | 110.6 | 2.1 | – | – |
| O/N=C/Nc1ccc(Br)cc1Br [Comp. 34] | 163 to 163.5 | 90.6 | 79.7 | – | – | – | – |
| COc1cccc(COc2ccc(N/C=N/O)cc2)c1 [Comp. 390] | 152.5 to 153.5 | – | – | 112.8 | 2.7 | – | – |

| SMILES | melting point [°C] | Inhibition rate (1 μM) [1, 2] | IC50 [1, 3] [nM] | Inhibition rate (1 μM) [1, 4] | IC50 [1, 5] [nM] | Inhibition rate (1 μM) ([1]; 1 μM of the subject compound) | IC50 [1, 6] [nM] |
| --- | --- | --- | --- | --- | --- | --- | --- |
| CSCCOc1ccc(N/C=N/O)cc1 [Comp. 413] | 112 to 113 | – | – | – | – | 120.2 | 2.3 |
| CCCCc1ccccc1N/C=N/O [Comp. 3] | 84.5 to 85.5 | 98.9 | – | – | – | – | – |
| CCCCCCCOc1ccc(N/C=N/O)cc1 [Comp. 321] | 121 to 122.5 | – | – | 99.9 | 3.7 | – | – |
| O/N=C/Nc1ccc(OCC2COc3ccccc3O2)cc1 (stereo not drawn) [Comp. 410] | 153 to 155 | – | – | – | – | 117.3 | 1 |
| Cc1ccc(N/C=N/O)cc1C [Comp. 13] | 116 to 118 | 95.9 | 118 | – | – | – | – |
| Cc1cccc(COc2ccc(N/C=N/O)cc2)n1 [Comp. 369] | 146.5 to 149 | – | – | 105 | 3.1 | – | – |
| CSc1ccc(COc2ccc(N/C=N/O)cc2)cc1 [Comp. 387] | 163 to 164 | – | – | 97.8 | 0.9 | – | – |
| O/N=C/Nc1ccc(OCCn2cccc2)cc1 [Comp. 411] | 150.5 to 151.5 | – | – | – | – | 122.4 | 3.1 |
| O/N=C/Nc1ccc(OCCc2ccsc2)cc1 [Comp. 423] | 132 to 134.5 | – | – | – | – | 118.4 | 2.2 |
| O/N=C/Nc1ccc(OCCC2CCCCC2)cc1 [Comp. 341] | 129.5 to 133 | – | – | 104 | 1.2 | – | – |
| O/N=C/Nc1ccc(-n2ccc(C(F)(F)F)n2)cc1 [Comp. 273] | 165 to 167 | – | – | 89.2 | 96.8 | – | – |
| CCCCCCCCCOc1ccc(N/C=N/O)cc1 [Comp. 323] | 128 to 130 | – | – | – | 25.9 | – | – |
| C=CCCCOc1ccc(N/C=N/O)cc1 [Comp. 329] | 127 to 128 | – | – | 121.1 | 0.7 | – | – |
| O/N=C/Nc1cccc(Cl)c1 [Comp. 23] | 110 to 111.5 | 82.8 | 476 | – | – | – | – |
| O/N=C/Nc1c(Cl)cc(Cl)cc1Cl [Comp. 121] | 166.5 to 167 | 72.0 | – | – | – | – | – |
| CC(C)c1ccccc1N/C=N/O [Comp. 32] | 114 to 115 | 87.2 | – | – | – | – | – |
| O/N=C/Nc1ccc(Br)cc1 [Comp. 36] | 163 to 164 | 98.3 | 136 | – | – | – | – |
| O/N=C/Nc1ccc(OCc2ccc3ccccc3n2)cc1 [Comp. 342] | 174.5 to 175.5 | – | – | 98.5 | 5.3 | – | – |
| Cc1cc(I)ccc1N/C=N/O [Comp. 47] | 166 to 166.5 | 94.8 | 6.5 | – | – | – | – |
| Cc1cc(C)c(N/C=N/O)c(Br)c1 [Comp. 45] | 163.5 to 164.5 | 53.5 | – | – | – | – | – |
| O/N=C/Nc1ccc(OCc2cccnc2)cc1 [Comp. 362] | 156 to 157 | – | – | 106 | 2.1 | – | – |
